Source: US10894777B2, “TG2 inhibitor piperazine compounds and uses thereof” (UNIVERSITY OF OTTAWA, priority 2016, dated 2021)

What was measured:
[1] = test system: shRNA-transduced U87, U251 and T98G cells; test: Agarose colony formation assay, TG2 shRNA-transduced cells; assay type: cell-based, human; conditions: 10 μM, 2 weeks
Experimental: Lentiviral vectors. Lentiviral knockdown vectors were prepared and used as previously described (Gundemir, S. et al., PLoS ONE 4(7):e6123, 2009; Barde, I. et al., Curr. Protoc. Neurosci. Chapter 4, Unit 4.21, 1-23, 2010).
Agarose colony formation assay. Agarose colony formation assay was conducted as described (Horman, S. R. et al., J. Biomol. Screen 18(10):1298-308, 2013; Zhang, K. et al., Tumour Biol. 35(3):2537-48, 2014) using 6-well plates and 5,000 cells in each well. 10 μM NC9 or DMSO was added to every layer at the start of the experiments. 2 mL liquid MEM containing 10 μM NC9 or DMSO was used to cover the agarose and it was changed 3 times a week. Colony growth was monitored every day and at the end of 10-15 days, the colonies were fixed with 4% paraformaldehyde, stained with 0.005% crystal violet, washed with PBS twice and 40 random pictures were taken from each treatment group. A person blinded for the treatments measured the area of the colonies using ImageJ program and the volumes were calculated from the area data under the assumption that the colonies are perfect spheres. The volumes were used to compare the effect of NC9 on colony growth.

EGFR = test: Immunoblot of EGFR and phospho-EGFR in GBM cells; assay type: cell-based, human
Experimental: In (A) it is shown that shorter treatments with NC9 had no effect on EGF-stimulated EGFR phosphorylation in U87 cells. U87 cells were treated with 10 μM NC9 or DMSO control for 24 h followed by 10 min of 100 ng/mL EGF treatment. At the end of the treatments, cells were lysed and 20 μg of lysates from U87 cells were blotted for phospho-EGFR, EGFR and tubulin. […] Cell medium was changed every 24 h and fresh inhibitors or DMSO was added to the medium. At the end of the treatment, cells were lysed and 20 μg of lysates from cells U87 and T98G were blotted for phospho-EGFR, EGFR and actin.
Immunoblotting. Cells were rinsed in ice-cold phosphate-buffered saline (PBS) and collected in lysis buffer, containing 0.5% NP-40, 150 mM NaCl, 10 mM Tris-Cl (pH 7.4), 1 mM EGTA, 1 mM EDTA, 1 mM phenylmethylsulphonyl fluoride, 1 μM okadaic acid, and 10 μg/mL each of aprotinin, leupeptin, and pepstatin. Samples were sonicated on ice and centrifuged at 16,000 g for 10 min. Protein concentrations of supernatants were then determined by the bicinchoninic acid assay with bovine serum albumin (BSA) as a standard and samples were diluted to a final concentration of 1 mg/mL with 2× reducing stop buffer (0.25 M Tris-HCl, pH 6.8, 5 mM EDTA, 5 mM EGTA, 25 mM dithiothreitol, 2% SDS, 10% glycerol, and bromophenol blue as the tracking dye). […]

hTG1 = hTG1 (Homo sapiens, UniProt P22735); test: Colorimetric transamidase activity assay (AL5 substrate), hTG1; assay type: biochemical; conditions: Table 9; Kitz and Wilson conditions
Experimental: Selectivity of certain irreversible inhibitors over other members of the transglutaminase family was assessed. […] Inhibitors were tested using a continuous colorimetric assay (Leblanc, A. et al., Biochemistry (2001), 40 (28): 8335-8342) for hTG1 and hTG6 and a commercially available continuous fluorescent assay that utilizes a peptidic FRET quenched substrate (Oertel, K. et al., Anal. Biochem. (2007), 367 (2): 152-158; Király, R. et al., Amino Acids (2016), 48 (1): 31-40) for the other transglutaminases, FXIIIa and hTG3. The rate constant of enzyme inactivation (kobs) for a specific concentration of inhibitor was obtained using Kitz and Wilson conditions (Kitz, R. et al., J. Biol. Chem. (1962), 237: 3245-49). Inhibitor concentrations were adjusted to account for competition with substrates in each enzymatic reaction.
In Vitro Assays. Colorimetric transamidase activity assay.

TG2 = biological target: T1, TG2 (Homo sapiens, UniProt P21980); test: In vitro GTP binding assay after inhibition of hTG2 (BODIPY GTP-γ-S); conditions: inhibitor 2×KI, 30 min; 3 μM GTP-γ-S FL BODIPY
T1 sequence (P21980 1-687): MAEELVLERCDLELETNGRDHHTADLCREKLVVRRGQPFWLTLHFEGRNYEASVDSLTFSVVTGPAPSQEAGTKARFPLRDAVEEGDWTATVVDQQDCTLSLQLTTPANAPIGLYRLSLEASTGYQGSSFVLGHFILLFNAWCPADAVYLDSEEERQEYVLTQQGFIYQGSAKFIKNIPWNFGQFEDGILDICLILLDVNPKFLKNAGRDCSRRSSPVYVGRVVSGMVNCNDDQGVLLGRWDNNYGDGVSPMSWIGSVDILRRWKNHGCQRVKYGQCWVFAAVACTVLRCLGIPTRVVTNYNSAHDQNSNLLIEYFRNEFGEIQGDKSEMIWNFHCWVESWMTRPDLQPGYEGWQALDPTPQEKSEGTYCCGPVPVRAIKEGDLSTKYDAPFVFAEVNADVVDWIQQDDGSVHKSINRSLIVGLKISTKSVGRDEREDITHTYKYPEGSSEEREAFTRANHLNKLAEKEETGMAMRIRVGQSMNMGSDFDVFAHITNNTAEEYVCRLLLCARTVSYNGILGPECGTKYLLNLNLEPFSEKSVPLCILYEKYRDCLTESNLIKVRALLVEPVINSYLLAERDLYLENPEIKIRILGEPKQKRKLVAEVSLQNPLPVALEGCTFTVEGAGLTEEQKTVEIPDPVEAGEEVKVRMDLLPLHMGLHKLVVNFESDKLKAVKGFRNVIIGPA
Experimental: In vitro GTP binding assay. GTP binding was measured using a method similar to that reported previously (McEwen, D. P. et al., Anal. Biochem. (2001), 291 (1): 109-117). […] The buffer was then exchanged to 100 mM MOPS (pH=7.0), 1 mM EGTA and 5 mM MgCl2 to remove calcium using a 10-kDa molecular weight cut off membrane. The fluorescent GTP analog was then added to give a final concentration of 3.0 μM and fluorescence was then measured on a microplate reader after 10 minutes of incubation (Ex/Em: 490/520 nm).

Sequence of hTG1 (P22735 whole entry): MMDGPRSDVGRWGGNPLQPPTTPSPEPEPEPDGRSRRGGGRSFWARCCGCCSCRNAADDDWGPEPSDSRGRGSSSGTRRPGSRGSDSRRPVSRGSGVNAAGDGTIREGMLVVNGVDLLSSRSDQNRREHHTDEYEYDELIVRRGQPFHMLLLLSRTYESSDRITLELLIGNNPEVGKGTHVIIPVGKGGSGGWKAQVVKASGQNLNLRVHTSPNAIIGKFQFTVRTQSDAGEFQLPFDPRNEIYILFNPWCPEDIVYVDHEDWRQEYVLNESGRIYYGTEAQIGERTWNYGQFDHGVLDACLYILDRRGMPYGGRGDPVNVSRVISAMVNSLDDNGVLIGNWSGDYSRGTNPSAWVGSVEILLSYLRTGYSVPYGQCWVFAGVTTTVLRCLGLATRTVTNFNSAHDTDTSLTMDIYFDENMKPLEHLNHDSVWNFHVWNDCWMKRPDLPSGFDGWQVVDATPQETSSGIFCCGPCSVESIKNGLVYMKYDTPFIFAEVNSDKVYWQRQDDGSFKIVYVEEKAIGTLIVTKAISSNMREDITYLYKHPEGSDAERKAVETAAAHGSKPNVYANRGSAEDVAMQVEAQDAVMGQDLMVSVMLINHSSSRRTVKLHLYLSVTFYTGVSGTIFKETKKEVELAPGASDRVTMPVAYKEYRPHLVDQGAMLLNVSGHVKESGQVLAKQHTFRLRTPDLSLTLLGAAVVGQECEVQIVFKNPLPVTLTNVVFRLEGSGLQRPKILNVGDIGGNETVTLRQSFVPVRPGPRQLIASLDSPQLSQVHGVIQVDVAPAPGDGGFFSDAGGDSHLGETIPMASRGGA

Compound | growth-retarding effect when TG2 expression is silenced [1] | phospho-EGFR and EGFR levels, longer treatment (EGFR; U87 and T98G cells, 10 μM, 48-72 h) | EGFR or phospho-EGFR levels, shorter treatment (EGFR; U87 cells, 10 μM 24 h, then 100 ng/mL EGF 10 min) | kobs (10^−3 min^−1), TG1 (hTG1) | GTP binding of hTG2 after incubation with inhibitor (TG2)
C=CC(=O)NCCCC[C@H](NC(=O)OCc1ccccc1)C(=O)NCCOCCOCCNS(=O)(=O)c1cccc2c(N(C)C)cccc12 [NC9] | completely lost | decrease phospho-EGFR and EGFR levels in U87 cells, but not T98G cells | did not result in a decrease | 78.9 ± 5.9 10^−3 min^−1 | –
C=CC(=O)NCCCC[C@H](NC(=O)OCc1ccccc1)C(=O)N1CCN(S(=O)(=O)c2cccc3c(N(C)C)cccc23)CC1 [VA4, (S)-benzyl(6-acrylamido-1-(4-((5-(dimethylamino)naphthalen-1-yl)sulfonyl)piperazin-1-yl)-1-oxohexan-2-yl)carbamate] | – | – | – | – | abolish GTP binding nearly completely
